Like-named read-outs stand apart in the source and are kept apart here.
What was measured:
RVFV strain ZH-548 = experiment: microbe, parasite or virus in culture; format: cell-based; details: for IC50: Rift Valley fever virus
in vitro = details: African green monkey
RVFV L protein = RVFV L protein (Rift valley fever virus, UniProt P27316); experiment: cell-based
[1] = Vero C1008, 72 h, read-out: IC50, cytopathic effect reduction assay
[2] = Vero C1008, read-out: IC50: 95% CI, CPE reduction assay

Chain of RVFV L protein (P27316 whole entry, looked up): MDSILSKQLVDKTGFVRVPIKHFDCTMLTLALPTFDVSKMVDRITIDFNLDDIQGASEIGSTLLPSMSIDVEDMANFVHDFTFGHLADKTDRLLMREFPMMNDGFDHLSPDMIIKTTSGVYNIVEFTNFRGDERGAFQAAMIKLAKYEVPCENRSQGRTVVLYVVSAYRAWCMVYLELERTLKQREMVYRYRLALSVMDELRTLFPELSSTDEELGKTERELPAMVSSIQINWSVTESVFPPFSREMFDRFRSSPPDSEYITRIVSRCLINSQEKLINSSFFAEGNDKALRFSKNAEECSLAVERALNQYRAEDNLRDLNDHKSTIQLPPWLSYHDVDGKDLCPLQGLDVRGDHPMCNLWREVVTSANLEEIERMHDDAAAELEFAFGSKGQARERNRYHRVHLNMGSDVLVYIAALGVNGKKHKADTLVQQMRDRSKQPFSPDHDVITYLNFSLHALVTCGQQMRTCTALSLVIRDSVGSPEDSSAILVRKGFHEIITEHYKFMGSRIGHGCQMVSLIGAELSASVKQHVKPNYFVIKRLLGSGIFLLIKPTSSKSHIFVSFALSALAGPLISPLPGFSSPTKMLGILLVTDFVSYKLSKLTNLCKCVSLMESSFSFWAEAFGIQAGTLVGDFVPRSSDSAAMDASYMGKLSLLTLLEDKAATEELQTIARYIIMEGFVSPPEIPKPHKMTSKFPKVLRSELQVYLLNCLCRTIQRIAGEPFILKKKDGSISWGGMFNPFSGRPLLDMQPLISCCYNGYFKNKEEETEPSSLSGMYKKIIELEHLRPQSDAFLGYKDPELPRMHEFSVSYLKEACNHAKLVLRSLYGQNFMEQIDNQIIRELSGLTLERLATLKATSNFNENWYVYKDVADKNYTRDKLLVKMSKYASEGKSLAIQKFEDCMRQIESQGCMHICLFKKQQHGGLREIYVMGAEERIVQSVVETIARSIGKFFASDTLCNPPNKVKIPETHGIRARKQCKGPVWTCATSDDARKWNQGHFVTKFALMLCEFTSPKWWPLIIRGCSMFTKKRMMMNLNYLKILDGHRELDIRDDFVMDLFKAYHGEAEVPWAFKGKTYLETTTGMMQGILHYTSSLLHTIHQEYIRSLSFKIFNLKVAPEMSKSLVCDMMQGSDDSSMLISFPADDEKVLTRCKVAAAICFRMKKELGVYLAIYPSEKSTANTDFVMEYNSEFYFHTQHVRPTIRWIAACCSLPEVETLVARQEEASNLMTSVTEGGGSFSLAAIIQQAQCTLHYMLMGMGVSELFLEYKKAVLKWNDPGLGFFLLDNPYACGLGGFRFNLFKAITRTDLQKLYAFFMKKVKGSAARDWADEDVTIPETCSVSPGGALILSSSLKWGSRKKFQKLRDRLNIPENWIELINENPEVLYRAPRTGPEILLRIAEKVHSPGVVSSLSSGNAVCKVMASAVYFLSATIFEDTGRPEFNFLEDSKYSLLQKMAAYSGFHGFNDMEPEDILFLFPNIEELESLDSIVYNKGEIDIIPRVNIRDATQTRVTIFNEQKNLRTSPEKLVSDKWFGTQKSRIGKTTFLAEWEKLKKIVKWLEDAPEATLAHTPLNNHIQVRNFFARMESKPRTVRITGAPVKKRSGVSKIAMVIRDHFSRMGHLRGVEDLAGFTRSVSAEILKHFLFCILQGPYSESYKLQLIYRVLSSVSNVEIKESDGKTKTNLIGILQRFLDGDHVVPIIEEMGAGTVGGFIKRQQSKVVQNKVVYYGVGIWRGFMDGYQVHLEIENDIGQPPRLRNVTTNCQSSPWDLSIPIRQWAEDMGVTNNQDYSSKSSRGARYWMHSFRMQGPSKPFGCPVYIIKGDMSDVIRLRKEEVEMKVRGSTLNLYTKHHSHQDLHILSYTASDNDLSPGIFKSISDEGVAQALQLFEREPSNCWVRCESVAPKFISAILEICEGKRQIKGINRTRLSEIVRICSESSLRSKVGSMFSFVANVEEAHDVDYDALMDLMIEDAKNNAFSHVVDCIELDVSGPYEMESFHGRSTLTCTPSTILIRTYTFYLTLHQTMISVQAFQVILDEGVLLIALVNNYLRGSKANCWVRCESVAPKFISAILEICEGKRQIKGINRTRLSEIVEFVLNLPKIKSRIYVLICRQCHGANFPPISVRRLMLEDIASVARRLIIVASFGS

Compound	IC50 (RVFV strain ZH-548; [1]) [µM]	CC50 (in vitro) [µM]	other results
5'-azacytidine	–	–	CC50 (VERO E6 cells): > 100 µM
O=C(O)[C@H]1C2CCC(CC2)[C@@H]1Nc1nc(-c2c[nH]c3ncc(F)cc23)ncc1F [Pimodivir]	> 100	> 100	–
Nc1ccn(C[C@@H](CO)OCP(=O)(O)O)c(=O)n1 [Cidofovir]	> 100	> 100	Activity against RVFV in cell culture (RVFV strain ZH-548): no effect
Nc1ccn([C@@H]2O[C@H](CO)[C@@H](O)C2(F)F)c(=O)n1 [Gemcitabine, 2'-deoxy-2',2'-difluorocytidine]	> 100	> 100	–
Nc1ncnc2c1ncn2[C@@H]1O[C@H](CO)[C@@H](O)[C@H]1F [2´-fluoro-2´-deoxyadenosine]	> 100	> 100	–
NC(=O)c1ncn([C@@H]2O[C@H](CO)[C@@H](O)[C@H]2O)n1 [Ribavirin]	55 ± 9	> 100	–
CC(C)OC(=O)[C@H](C)N[P@](=O)(OC[C@H]1O[C@@H](n2ccc(=O)[nH]c2=O)[C@](C)(F)[C@@H]1O)Oc1ccccc1 [Sofosbuvir]	> 100	> 100	Activity against RVFV in cell culture (RVFV strain ZH-548): lacked activity
O=c1ccn([C@@H]2C=C(CO)[C@@H](O)[C@H]2O)c(=O)[nH]1 [Cyclopentenyluracil]	> 100	> 100	–
Nc1nc2c(ncn2[C@@H]2O[C@H](CO)[C@@H](O)[C@H]2F)c(=O)[nH]1 [2´-fluoro-2´-deoxyguanosine]	23 ± 3	> 100	–
5'-fluoro-2'-deoxycytidine	–	–	CC50 (VERO E6 cells): > 100 µM
O=c1ccn([C@@H]2O[C@H](CO)[C@@H](O)[C@H]2F)c(=O)[nH]1 [2´-fluoro-2´-deoxyuridine]	> 100	> 100	–
CC(C)C(=O)OC[C@H]1O[C@@H](n2ccc(NO)nc2=O)[C@H](O)[C@@H]1O [Molnupiravir]	27 ± 4	> 100	–
CCCCCCCC/C=C/CCCCCCCC(=O)OC[C@H]1O[C@@H](n2ccc(N)nc2=O)C(F)(F)[C@@H]1O [Gemcitabine elaidate]	> 100	> 100	–
Nc1ccn([C@@H]2CS[C@H](CO)O2)c(=O)n1 [Lamivudine]	> 100	> 100	–
O=c1nc(NO)ccn1[C@@H]1O[C@H](CO)[C@@H](O)[C@H]1O [EIDD-1931]	2 ± 0.3	> 100	Cytotoxicity (VERO E6 cells): nontoxic in selected concentration range; IC50 (RVFV L protein): 1.6 ± 0.2 µM; IC50 (RVFV strain ZH-548; [2]): 1.5 to 2.8 µM
CCCC(CCC)C(=O)Nc1ccn([C@@H]2O[C@H](CO)[C@@H](O)C2(F)F)c(=O)n1 [LY-2334737]	> 100	> 100	–
O=C(Nc1ccn([C@@H]2O[C@H](CO)[C@@H](O)[C@H]2F)c(=O)n1)c1ccccc1 [N4-benzoyl-2'-fluoro-2'-deoxycytidine]	34 ± 4	> 100	–

Compound	IC50 (RVFV strain ZH-548; [1]) [µM]	CC50 (in vitro) [µM]	other results
CCC(CC)COC(=O)[C@H](C)N[P@](=O)(OC[C@H]1O[C@@](C#N)(c2ccc3c(N)ncnn23)[C@H](O)[C@@H]1O)Oc1ccccc1 [Remdesivir]	> 100	> 100	Activity against RVFV in cell culture (RVFV strain ZH-548): no effect
COC(=O)OCOc1c2n(ccc1=O)N([C@@H]1c3ccccc3SCc3c1ccc(F)c3F)[C@@H]1COCCN1C2=O [Baloxavir Marboxil]	> 100	> 100	–
Nc1ccn([C@@H]2O[C@H](CO)[C@@H](O)[C@@H]2O)c(=O)n1 [Cytarabine, Cytosine arabinoside]	> 100	> 100	–
Cc1cn([C@H]2C[C@H](N=[N+]=[N-])[C@@H](CO)O2)c(=O)[nH]c1=O [Zidovudine]	> 100	> 100	–
Nc1nc(=O)n([C@@H]2CS[C@H](CO)O2)cc1F [Emtricitabine]	> 100	> 100	–
NC(=O)c1nc(F)c[nH]c1=O [Favipiravir]	37 ± 6	> 100	–
CC(C)OC(=O)[C@H](C)N[P@](=O)(CO[C@H](C)Cn1cnc2c(N)ncnc21)Oc1ccccc1 [Tenofovir Alafenamide]	> 100	> 100	–
COc1c(-c2ccc3cc(NS(C)(=O)=O)ccc3c2)cc(-n2ccc(=O)[nH]c2=O)cc1C(C)(C)C [Dasabuvir]	> 100	26 ± 7	Activity against RVFV in cell culture (RVFV strain ZH-548): lacked activity
CC(=O)Nc1ccn([C@@H]2O[C@H](CO)[C@@H](O)[C@H]2F)c(=O)n1 [N4-acetyl-2'-fluoro-2'-deoxycytidine]	20 ± 3	> 100	–
Cc1cn([C@@H]2O[C@H](CO)[C@@H](O)[C@H]2F)c(=O)[nH]c1=O [2´-fluoro-2´-deoxythymidine]	> 100	> 100	–
Nc1ccn([C@@H]2C=C(CO)[C@@H](O)[C@H]2O)c(=O)n1 [Cyclopentenylcytosine]	> 100	> 100	–
5'-aza-2'-deoxycytidine [Decitabine]	–	–	CC50 (VERO E6 cells): > 100 µM
Cc1cn([C@H]2C=C[C@@H](CO)O2)c(=O)[nH]c1=O [Stavudine]	> 100	> 100	–
NC(=O)c1nccnc1O [T-1105]	> 100	> 100	–
C[C@@]1(F)[C@H](O)[C@@H](CO)O[C@H]1n1ccc(N)nc1=O [PSI-6130, 2'-deoxy-2'-fluoro-2'-C-methylcytidine]	> 100	> 100	–
Nc1ccn([C@@H]2O[C@H](CO)[C@@H](O)[C@H]2F)c(=O)n1 [2'-fluoro-2'-deoxycytidine]	3 ± 0.3	> 100	Cytotoxicity (VERO E6 cells): nontoxic in selected concentration range; IC50 (RVFV L protein): 5.9 ± 1.1 µM; IC50 (RVFV strain ZH-548; [2]): 2.4 to 3.9 µM
